Data from ChEMBL document CHEMBL3885881, “DrugMatrix”.

Species on record: Rattus norvegicus
Test: DrugMatrix - Regimen: Daily Repeat
Assay type: toxicity, organism-based, Sprague-Dawley
Design: regimen Daily Repeat, gender Male, age 6-8 weeks
Settings: in vivo, po, route oral GAVAGE, […]; for ABSOLUTE BASOPHIL / ABSOLUTE EOSINOPHIL / ABSOLUTE LYMPHOCYTE / ABSOLUTE MONOCYTE / ABSOLUTE SEGMENTED NEUTROPHIL / BASOPHIL / EOSINOPHIL / ERYTHROCYTE COUNT / HEMATOCRIT / HEMOGLOBIN / LEUKOCYTE COUNT / LYMPHOCYTE / MEAN CORPUSCULAR HEMOGLOBIN / MEAN CORPUSCULAR HEMOGLOBIN CONCENTRATION / MEAN CORPUSCULAR VOLUME / MONOCYTE / NEUTROPHIL / NUCLEATED RED BLOOD CELLS / PLATELET COUNT: tissue Blood; for ALANINE AMINOTRANSFERASE / ALBUMIN / ALKALINE PHOSPHATASE / ASPARTATE AMINOTRANSFERASE / BLOOD UREA NITROGEN / CARBON DIOXIDE / CHLORIDE / CHOLESTEROL / CREATINE PHOSPHOKINASE / CREATININE / GLUCOSE / LACTATE DEHYDROGENASE / LIPASE / PHOSPHORUS / POTASSIUM / SODIUM / TOTAL BILIRUBIN / TOTAL PROTEIN / URIC ACID: tissue Plasma
[1] = 6 mg/kg, 120 h, dose level Low, time 5 day
[2] = 74 mg/kg, 72 h, dose level High, time 3 day
[3] = 74 mg/kg, 120 h, dose level High, time 5 day

## CO[C@H]1O[C@@H]2O[C@@]3(C)CC[C@H]4[C@H](C)CC[C@@H]([C@H]1C)[C@@]24OO3
[1]
  ABSOLUTE BASOPHIL: 0 CELLS/uL
  ABSOLUTE EOSINOPHIL: 153 CELLS/uL
  ABSOLUTE LYMPHOCYTE: 12396 CELLS/uL
  ABSOLUTE MONOCYTE: 197.67 CELLS/uL
  ABSOLUTE SEGMENTED NEUTROPHIL: 1920 CELLS/uL
  BASOPHIL: 0%
  EOSINOPHIL: 1%
  ERYTHROCYTE COUNT: 5.88 x10E6/uL
  HEMATOCRIT: 36.63%
  HEMOGLOBIN: 13.47 G/DL
  LEUKOCYTE COUNT: 14.67 x10E3/uL
  LYMPHOCYTE: 84.33%
  MEAN CORPUSCULAR HEMOGLOBIN: 22.93 pg
  MEAN CORPUSCULAR HEMOGLOBIN CONCENTRATION: 36.8 G/DL
  MEAN CORPUSCULAR VOLUME: 62.33 fL
  MONOCYTE: 1.33%
  NEUTROPHIL: 13.33%
  NUCLEATED RED BLOOD CELLS: 0 /100WBC
  PLATELET COUNT: 1198.67 x10E3/uL
  ALANINE AMINOTRANSFERASE: 52.67 u/L
  ALBUMIN: 4.37 G/DL
  ALKALINE PHOSPHATASE: 430.33 u/L
  ASPARTATE AMINOTRANSFERASE: 101 u/L
  BLOOD UREA NITROGEN: 17.67 mg/dL
  CARBON DIOXIDE: 23.33 mmol/L
  CHLORIDE: 105.67 MEQ/L
  CHOLESTEROL: 58.67 mg/dL
  CREATINE PHOSPHOKINASE: 552.33 u/L
  CREATININE: 0.16 mg/dL
  GLUCOSE: 160 mg/dL
  LACTATE DEHYDROGENASE: 887.67 u/L
  LIPASE: 8.33 u/L
  PHOSPHORUS: 11.77 mg/dL
  POTASSIUM: 6.02 MEQ/L
  SODIUM: 144.53 MEQ/L
  TOTAL BILIRUBIN: 0.17 mg/dL
  TOTAL PROTEIN: 5.93 G/DL
  URIC ACID: 1.83 mg/dL
[2]
  ABSOLUTE BASOPHIL: 0 CELLS/uL
  ABSOLUTE EOSINOPHIL: 390 CELLS/uL
  ABSOLUTE LYMPHOCYTE: 14550 CELLS/uL
  ABSOLUTE MONOCYTE: 453 CELLS/uL
  ABSOLUTE SEGMENTED NEUTROPHIL: 1407 CELLS/uL
  BASOPHIL: 0%
  EOSINOPHIL: 2.33%
  ERYTHROCYTE COUNT: 5.21 x10E6/uL
  HEMATOCRIT: 33.1%
  HEMOGLOBIN: 12.6 G/DL
  LEUKOCYTE COUNT: 16.8 x10E3/uL
  LYMPHOCYTE: 86.67%
  MEAN CORPUSCULAR HEMOGLOBIN: 24.23 pg
  MEAN CORPUSCULAR HEMOGLOBIN CONCENTRATION: 38.07 G/DL
  MEAN CORPUSCULAR VOLUME: 63.67 fL
  MONOCYTE: 2.67%
  NEUTROPHIL: 8.33%
  NUCLEATED RED BLOOD CELLS: 0 /100WBC
  PLATELET COUNT: 1173 x10E3/uL
  ALANINE AMINOTRANSFERASE: 46 u/L
  ALBUMIN: 4.13 G/DL
  ALKALINE PHOSPHATASE: 349.67 u/L
  ASPARTATE AMINOTRANSFERASE: 77.33 u/L
  BLOOD UREA NITROGEN: 16 mg/dL
  CARBON DIOXIDE: 27 mmol/L
  CHLORIDE: 103.33 MEQ/L
  CHOLESTEROL: 66.67 mg/dL
  CREATINE PHOSPHOKINASE: 259.33 u/L
  CREATININE: 0.23 mg/dL
  GLUCOSE: 144.67 mg/dL
  LACTATE DEHYDROGENASE: 331.33 u/L
  LIPASE: 9.33 u/L
  PHOSPHORUS: 10.07 mg/dL
  POTASSIUM: 6.54 MEQ/L
  SODIUM: 142.23 MEQ/L
  TOTAL BILIRUBIN: 0.2 mg/dL
  TOTAL PROTEIN: 5.63 G/DL
  URIC ACID: 1.17 mg/dL
[3]
  ABSOLUTE BASOPHIL: 0 CELLS/uL
  ABSOLUTE EOSINOPHIL: 257.33 CELLS/uL
  ABSOLUTE LYMPHOCYTE: 17040 CELLS/uL
  ABSOLUTE MONOCYTE: 413.67 CELLS/uL
  ABSOLUTE SEGMENTED NEUTROPHIL: 1822.33 CELLS/uL
  BASOPHIL: 0%
  EOSINOPHIL: 1.33%
  ERYTHROCYTE COUNT: 6.13 x10E6/uL
  HEMATOCRIT: 36.63%
  HEMOGLOBIN: 13.57 G/DL
  LEUKOCYTE COUNT: 19.53 x10E3/uL
  LYMPHOCYTE: 87%
  MEAN CORPUSCULAR HEMOGLOBIN: 22.17 pg
  MEAN CORPUSCULAR HEMOGLOBIN CONCENTRATION: 37.03 G/DL
  MEAN CORPUSCULAR VOLUME: 59.77 fL
  MONOCYTE: 2%
  NEUTROPHIL: 9.67%
  NUCLEATED RED BLOOD CELLS: 0.33 /100WBC
  PLATELET COUNT: 1300.33 x10E3/uL
  ALANINE AMINOTRANSFERASE: 55.33 u/L
  ALBUMIN: 4.3 G/DL
  ALKALINE PHOSPHATASE: 329 u/L
  ASPARTATE AMINOTRANSFERASE: 100 u/L
  BLOOD UREA NITROGEN: 16.33 mg/dL
  CARBON DIOXIDE: 25 mmol/L
  CHLORIDE: 102.67 MEQ/L
  CHOLESTEROL: 51.67 mg/dL
  CREATINE PHOSPHOKINASE: 790.67 u/L
  CREATININE: 0.21 mg/dL
  GLUCOSE: 171.67 mg/dL
  LACTATE DEHYDROGENASE: 649.67 u/L
  LIPASE: 9.67 u/L
  PHOSPHORUS: 12.37 mg/dL
  POTASSIUM: 5.73 MEQ/L
  SODIUM: 143.53 MEQ/L
  TOTAL BILIRUBIN: 0.13 mg/dL
  TOTAL PROTEIN: 5.8 G/DL
  URIC ACID: 1.73 mg/dL
